“And” between values parts separate entries of the source, which are not always exact repeats. Identical values can stand only once.
Columns and labels:
[1] = molecular target: EGFR (Human), P00533 [T790M/L858R]
[2] = molecular target: EGFR (human), P00533 [WT]
EGFR (human) = EGFR (human) (UniProt P00533); details: hcc827
Chain of EGFR (human) (P00533 whole entry, looked up): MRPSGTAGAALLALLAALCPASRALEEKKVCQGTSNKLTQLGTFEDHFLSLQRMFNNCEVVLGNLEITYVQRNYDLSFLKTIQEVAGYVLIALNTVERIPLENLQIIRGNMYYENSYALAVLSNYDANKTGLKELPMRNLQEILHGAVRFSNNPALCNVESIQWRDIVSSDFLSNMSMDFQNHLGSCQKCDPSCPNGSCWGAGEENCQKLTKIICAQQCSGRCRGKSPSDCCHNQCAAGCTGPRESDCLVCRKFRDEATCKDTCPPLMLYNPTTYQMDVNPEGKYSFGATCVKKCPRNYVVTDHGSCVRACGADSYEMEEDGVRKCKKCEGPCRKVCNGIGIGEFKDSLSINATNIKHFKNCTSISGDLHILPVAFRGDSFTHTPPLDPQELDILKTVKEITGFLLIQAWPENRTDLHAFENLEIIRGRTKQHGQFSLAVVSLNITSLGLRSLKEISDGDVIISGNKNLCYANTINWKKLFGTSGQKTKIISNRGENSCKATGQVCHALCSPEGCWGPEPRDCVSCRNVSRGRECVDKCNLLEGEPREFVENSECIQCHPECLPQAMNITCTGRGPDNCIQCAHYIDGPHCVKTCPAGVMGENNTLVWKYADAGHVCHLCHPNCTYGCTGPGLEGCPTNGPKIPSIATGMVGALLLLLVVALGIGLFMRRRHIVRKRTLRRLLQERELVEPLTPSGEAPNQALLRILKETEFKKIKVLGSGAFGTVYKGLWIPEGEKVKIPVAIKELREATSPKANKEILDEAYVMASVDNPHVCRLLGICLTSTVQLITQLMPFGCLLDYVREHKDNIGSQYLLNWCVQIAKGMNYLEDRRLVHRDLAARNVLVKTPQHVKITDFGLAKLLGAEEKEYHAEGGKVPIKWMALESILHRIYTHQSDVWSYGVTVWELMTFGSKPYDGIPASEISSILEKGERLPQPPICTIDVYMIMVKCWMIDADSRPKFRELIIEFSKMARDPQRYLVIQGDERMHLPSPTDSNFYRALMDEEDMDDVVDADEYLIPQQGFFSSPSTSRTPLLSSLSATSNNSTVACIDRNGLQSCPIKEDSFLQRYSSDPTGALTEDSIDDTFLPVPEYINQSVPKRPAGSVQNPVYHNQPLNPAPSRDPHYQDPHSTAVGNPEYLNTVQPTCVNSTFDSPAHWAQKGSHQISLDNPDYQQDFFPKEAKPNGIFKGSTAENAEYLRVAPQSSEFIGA

Chain of EGFR (Human), P00533 [T790M/L858R] (P00533 whole entry T790M/L858R, looked up): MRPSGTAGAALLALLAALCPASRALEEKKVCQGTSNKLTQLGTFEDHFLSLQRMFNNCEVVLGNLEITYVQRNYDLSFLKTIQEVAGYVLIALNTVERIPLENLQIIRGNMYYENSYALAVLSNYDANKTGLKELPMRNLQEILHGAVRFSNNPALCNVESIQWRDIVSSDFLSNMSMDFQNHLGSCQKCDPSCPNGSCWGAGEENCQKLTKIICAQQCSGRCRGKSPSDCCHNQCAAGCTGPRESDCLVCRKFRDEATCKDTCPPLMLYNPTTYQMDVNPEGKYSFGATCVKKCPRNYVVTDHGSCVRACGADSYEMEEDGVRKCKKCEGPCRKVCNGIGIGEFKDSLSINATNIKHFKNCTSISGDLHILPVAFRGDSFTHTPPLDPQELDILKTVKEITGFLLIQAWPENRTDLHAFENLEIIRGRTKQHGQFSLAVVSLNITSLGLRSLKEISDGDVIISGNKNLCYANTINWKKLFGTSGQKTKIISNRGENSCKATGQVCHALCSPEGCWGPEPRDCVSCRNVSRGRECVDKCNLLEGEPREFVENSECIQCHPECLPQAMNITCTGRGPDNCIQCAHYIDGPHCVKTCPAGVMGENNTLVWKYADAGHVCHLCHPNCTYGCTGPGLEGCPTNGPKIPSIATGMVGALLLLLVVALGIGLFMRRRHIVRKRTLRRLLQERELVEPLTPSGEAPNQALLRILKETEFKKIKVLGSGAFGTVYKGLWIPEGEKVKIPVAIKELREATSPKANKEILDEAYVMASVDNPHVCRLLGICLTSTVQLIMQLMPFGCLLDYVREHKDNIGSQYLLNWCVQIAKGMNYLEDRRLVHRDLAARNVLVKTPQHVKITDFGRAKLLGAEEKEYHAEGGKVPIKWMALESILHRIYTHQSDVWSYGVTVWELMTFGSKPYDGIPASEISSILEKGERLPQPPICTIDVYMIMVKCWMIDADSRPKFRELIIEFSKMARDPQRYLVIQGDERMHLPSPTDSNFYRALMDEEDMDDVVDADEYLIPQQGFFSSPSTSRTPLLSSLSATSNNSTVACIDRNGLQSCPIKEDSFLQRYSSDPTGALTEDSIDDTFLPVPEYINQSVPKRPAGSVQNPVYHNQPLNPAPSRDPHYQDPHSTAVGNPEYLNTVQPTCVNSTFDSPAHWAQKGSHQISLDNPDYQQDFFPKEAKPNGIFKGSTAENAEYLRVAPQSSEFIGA
Chain of EGFR (human), P00533 [WT] (P00533 whole entry, looked up): as the sequence (P00533 whole entry, looked up) above

IC50 [1]	IC50 [2]	IC50 (EGFR (human))	SMILES
> 10 µM	–	–	CN1CCN(C/C=C/C(=O)N2CCc3c(sc4ncnc(N[C@H](CO)c5ccccc5)c34)C2)CC1
> 10 µM	–	–	CN(C)C/C=C/C(=O)N1CCc2c(sc3ncnc(NCCO)c23)C1
> 10 µM	–	–	OC[C@@H](Nc1ncnc2sc3c(c12)CCCC3)c1ccccc1
> 10 µM	–	–	CN(C)C/C=C/C(=O)N1CCc2c(sc3ncnc(N[C@@H](CO)c4ccccc4)c23)C1
–	3.24 µM	–	C[C@@H](Nc1ncnc2sc3c(c12)CCCC3)c1ccccc1
> 10 µM	–	–	O=C(/C=C/c1ccccc1)N1CCc2c(sc3ncnc(N[C@H](CO)c4ccccc4)c23)C1
–	0.007 µM and 0.006 µM	–	CN(C)C/C=C/C(=O)N1CCc2c(sc3ncnc(N[C@H](CO)c4ccccc4)c23)C1
> 10 µM	–	–	CCC(=O)N1CCc2c(sc3ncnc(N[C@H](CO)c4ccccc4)c23)C1
> 10 µM	–	–	OC[C@@H](Nc1ncnc2sc3c(c12)CCNC3)c1ccccc1
> 10 µM	2.6 µM	> 10 µM	c1ccc(CNc2ncnc3sc4c(c23)CCCC4)cc1
> 10 µM	–	–	C=CC(=O)N1CCc2c(sc3ncnc(N[C@@H](CO)c4ccccc4)c23)C1

Reference: the Kinase Knowledgebase extract (Sharma et al. 2016)
